We go through one molecule from patent EP0559845B1, “Use of compounds in preventing endotoxin shock” (priority 1991, dated 1992).

“Also recorded” adds a separate entry of the source.

Series [1] deals with LPS-induced GTPase activity in membranes isolated from RAW 264.7 cells. Kind of series: GTPase assay: effect of compounds on LPS-stimulated GTPase activity in macrophage membranes (release of 32Pi from γ-32P-GTP). The series is classed as biochemical. The text has this:
(§1) We sought to directly evaluate the influence of LPS on possible G-protein function by examining agonist-enhanced GTPase activity, which is a hallmark of G-protein action. Moreover, because macrophages are one of the key cell types in the release of toxic mediators following an LPS challenge, we first assessed the capacity of LPS to influence GTPase activity in membranes isolated from RAW 264.7 cells, which is a highly LPS-responsive macrophage cell line. In these studies, GTPase activity was measured using a standard assay. The activity was determined using 2 µM γ-^32P-GTP in the presence of 0.1 mM ATP and 0.2 mM of the non-hydrolyzable ATP analog, AMPPNP, in order to minimize nonspecific nucleotidase activity in the membrane preparations.
The reaction is initiated by the addition of the γ-^32P-GTP and the mixture incubated at 30-37°C for 15 to 30 minutes. The reaction is terminated by the addition of 500µl of 5% trichloroacetic acid and 500µl of 0.1gm/ml acid-activated charcoal in 5% trichloroacetic acid. The samples are centrifuged at 14,000xg for 10 minutes, and a 550µl aliquot of the supernatant is removed for scintillation counting. The supernatant will contain the released ^32Pi. The extent of GTPase inhibition is measured by the decrease in the amount of ^32Pi released from γ-^32P-GTP. Appropriate controls include mixtures with one of the following omitted: (i) test compound, (ii) endotoxin, and (iii) ATP, ADP or AMPPNP.
The membranes are resuspended in 20 mM HEPES (pH 7.4), 1 mM dithiothreitol, 1 mM EDTA and 10 µg leupeptin/ml. Aliquots are stored at -70°C until assayed.

Series [2] has as its system GTPase activity in membranes isolated from a macrophage (RAW 264.7) cell line. The series can be described thus: GTPase assay: basal or agonist-stimulated GTPase activity in macrophage membranes. The series is classed as biochemical. The following applies: no LPS.
From the text: as §1, with “preparations. In the preferred practice of the present invention, the ability of a candidate compound to inhibit LPS-induced GTPase is assessed by measuring the release of ^32Pi from γ-^32P-GTP.” for “preparations.”
We first determined the optimal LPS concentration for GTPase stimulation. In all experiments, the LPS dose response curve was quite steep, and with the highest activity occurring around 200-300 µg LPS/ml.
Under these conditions, GTPase activation was evident at 100 µg LPS/ml (roughly 6 µM assuming an average MW ∼ 17,000 kDa), and the maximal effect was seen by 300 µg/ml LPS. (2) To show adenosine mucleotide synergism with LPS-stimulated GTPase activity, either 10µM ATP or 30µM ADP replace the 0.1 mM ATP and 0.2 mM AMPPNP of the standard assay described by Cassel et al. and Neer et al.
In the preferred assay, a candidate compound (.001 - 1000 µM) is dissolved or suspended in 100µl of a reaction buffer containing 20mM HEPES (pH 7.4), 0.01mM ATP or ADP, membranes isolated from RAW 264.7 cells, 2µM γ-^32P-GTP (3-9 X 10cpm/pmol), 5mM MgCl2, 18µM LPS (based on an estimated MW of 17,000 kDa for E. coli 0111:B4 endotoxin), and 250 mM ammonium sulfate. The reaction is initiated by the addition of the γ-^32P-GTP and the mixture incubated at 30-37°C for 15 to 30 minutes. The reaction is terminated by the addition of 500µl of 5% trichloroacetic acid and 500µl of 0.1gm/ml acid-activated charcoal in 5% trichloroacetic acid. The samples are centrifuged at 14,000xg for 10 minutes, and a 550µl aliquot of the supernatant is removed for scintillation counting. The supernatant will contain the released ^32Pi. The extent of GTPase inhibition is measured by the decrease in the amount of ^32Pi released from γ-^32P-GTP. Appropriate controls include mixtures with one of the following omitted: (i) test compound, (ii) endotoxin, and (iii) ATP, ADP or AMPPNP.
The macrophage-like cell line RAW 264.7 is cultured as described using RPMI 1640 medium supplemented with 10% fetal calf serum (FCS) containing < 0.1 ng/ml LPS. The membranes are resuspended in 20 mM HEPES (pH 7.4), 1 mM dithiothreitol, 1 mM EDTA and 10 µg leupeptin/ml. Aliquots are stored at -70°C until assayed.
To assess whether the LPS/ATP-enhanced GTPase is a "low Km" form, which would be expected for a variety of large and small MW G-proteins, as well as for various GAP and ARF-like proteins, as opposed to a "high Km" form, such as a phosphatase, we assayed the GTPase activity using 0.2 and 50 µM GTP essentially as described previously. […] The LPS and ATP stimulated a low Km GTPase activity by ∼30% and 70%, respectively, when added individually. This stimulation of low Km activity was slightly greater than that estimated using the standard assay conditions. […] The LPS stimulation of GTPase activity is enhanced by adenine nucleotides.

Series [3] concerns FCS-enhanced GTPase activity. The series can be described thus: Inhibition of FCS-enhanced (non-LPS-stimulated) GTPase activity in macrophage membranes. The series is classed as biochemical. The following applies: 3 mg/ml lipid X; 10% FCS. How it is done:
With respect to non-LPS-stimulated GTPase activity in this macrophage system, we observed that 10% FCS (<0.1 ng endotoxin/ml serum by the Limulus amebocyte lysate method) induced a large degree of GTPase activation, whereas 3 mg/ml lipid X inhibited the FCS-enhanced GTPase activity by ∼ 50%.

In the next series the test system is sheep. To be noted: 40-1000 µg/kg; reported in the literature; cited from earlier work.

As for `CCCCCCCCCCC[C@@H](O)CC(=O)N[C@H]1[C@@H](OP(=O)(O)O)O[C@H](CO)[C@@H](O)[C@@H]1OC(=O)C[C@H](O)CCCCCCCCCCC` [lipid X], the “inhibition of LPS-stimulated GTPase activity” value in series [1] is “dose-dependent inhibition; also recorded: dose-dependently inhibiting”. The “half-maximal inhibition of LPS-enhanced GTPase activity” value in series [1] (LPS 300 µg/ml or 1 mg/ml) is on record as 23 to 1 molar ratio of lipid X to LPS. Moreover, in series [2], the “effect on basal GTPase activity” value was “slightly reducing basal activity”. Further, the “inhibition of FCS-enhanced GTPase activity” value in series [3] is recorded as ~50%. For the same molecule, the “illness after lipid X by itself” value with sheep is on record as “does not create marked illness or fever”.
